Experimental data: patent publication US20250255874A1, “Methods for Treating Immune Thrombocytopenia By Administering (R)-2-[3-[4-Amino-3-(2-Fluoro-4-Phenoxy-Phenyl)Pyrazolo[3,4-D]Pyrimidin-1-YL]Piperidine-1-Carbonyl]-4-Methyl-4-[4-(Oxetan-3-YL)Piperazin-1-YL]Pent-2-Enentrile” (Principia Biopharma Inc., priority 2022, published 2025)

System: patients with relapsed/refractory immune thrombocytopenia
Experiment: Phase 1/2 study (NCT03395210) Part A, safety;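 note: adverse events graded by NCI CTCAE version 4.0, with worsening of pre-existing conditions counted as adverse events, analysed in the Safety Population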
[1] = patients who initiated at all doses

## CC(C)(C=C(C#N)C(=O)N1CCC[C@@H](n2nc(-c3ccc(Oc4ccccc4)cc3F)c3c(N)ncnc32)C1)N1CCN(C2COC2)CC1 [rilzabrutinib, (R)-2-[3-[4-amino-3-(2-fluoro-4-phenoxy-phenyl)pyrazolo[3,4-d]pyrimidin-1-yl]piperidine-1-carbonyl]-4-methyl-4-[4-(oxetan-3-yl)piperazin-1-yl]pent-2-enenitrile]
Safety Population, N = 60
  Fatigue, TEAEs Due to Any Cause, Grade 2: 2 (3) number of patients (percent)
  Fatigue, Treatment-Related TEAEs, Any grade: 6 (10) number of patients (percent)
  Fatigue, Treatment-Related TEAEs, Grade 1: 5 (8) number of patients (percent)
  Fatigue, Treatment-Related TEAEs, Grade 2: 1 (2) number of patients (percent)
  Frequent bowel movements, TEAEs Due to Any Cause, Any grade: 1 (2) number of patients (percent)
  Frequent bowel movements, TEAEs Due to Any Cause, Grade 2: 1 (2) number of patients (percent)
  Frequent bowel movements, Treatment-Related TEAEs, Any grade: 1 (2) number of patients (percent)
  Frequent bowel movements, Treatment-Related TEAEs, Grade 2: 1 (2) number of patients (percent)
  Gingival bleeding, TEAEs Due to Any Cause, Any grade: 3 (5) number of patients (percent)
  Gingival bleeding, TEAEs Due to Any Cause, Grade 1: 3 (5) number of patients (percent)
  Headache, TEAEs Due to Any Cause, Any grade: 7 (12) number of patients (percent)
  Headache, TEAEs Due to Any Cause, Grade 1: 7 (12) number of patients (percent)
  Headache, Treatment-Related TEAEs, Any grade: 2 (3) number of patients (percent)
  Headache, Treatment-Related TEAEs, Grade 1: 2 (3) number of patients (percent)
  Heavy menstrual bleeding, TEAEs Due to Any Cause, Any grade: 2 (3) number of patients (percent)
  Heavy menstrual bleeding, TEAEs Due to Any Cause, Grade 1: 1 (2) number of patients (percent)
  Heavy menstrual bleeding, TEAEs Due to Any Cause, Grade 2: 1 (2) number of patients (percent)
  Hot flush, TEAEs Due to Any Cause, Any grade: 1 (2) number of patients (percent)
  Hot flush, TEAEs Due to Any Cause, Grade 2: 1 (2) number of patients (percent)
  Hot flush, Treatment-Related TEAEs, Any grade: 1 (2) number of patients (percent)
  Hot flush, Treatment-Related TEAEs, Grade 2: 1 (2) number of patients (percent)
  Hypoesthesia, TEAEs Due to Any Cause, Any grade: 1 (2) number of patients (percent)
  Hypoesthesia, TEAEs Due to Any Cause, Grade 2: 1 (2) number of patients (percent)
  Hypoesthesia, Treatment-Related TEAEs, Any grade: 1 (2) number of patients (percent)
  Hypoesthesia, Treatment-Related TEAEs, Grade 2: 1 (2) number of patients (percent)
  Hypokalemia, TEAEs Due to Any Cause, Any grade: 1 (2) number of patients (percent)
  Hypokalemia, TEAEs Due to Any Cause, Grade 1: 1 (2) number of patients (percent)
  Hypokalemia, Treatment-Related TEAEs, Any grade: 1 (2) number of patients (percent)
  Hypokalemia, Treatment-Related TEAEs, Grade 1: 1 (2) number of patients (percent)
  Hypophosphatemia, TEAEs Due to Any Cause, Any grade: 2 (3) number of patients (percent)
  Hypophosphatemia, TEAEs Due to Any Cause, Grade 2: 2 (3) number of patients (percent)
  Increased white blood cell count, TEAEs Due to Any Cause, Any grade: 1 (2) number of patients (percent)
  Increased white blood cell count, TEAEs Due to Any Cause, Grade 2: 1 (2) number of patients (percent)
  Increased white blood cell count, Treatment-Related TEAEs, Any grade: 1 (2) number of patients (percent)
  Increased white blood cell count, Treatment-Related TEAEs, Grade 2: 1 (2) number of patients (percent)
  Maculo-papular rash, TEAEs Due to Any Cause, Any grade: 1 (2) number of patients (percent)
  Maculo-papular rash, TEAEs Due to Any Cause, Grade 1: 1 (2) number of patients (percent)
  Maculo-papular rash, Treatment-Related TEAEs, Any grade: 1 (2) number of patients (percent)
  Maculo-papular rash, Treatment-Related TEAEs, Grade 1: 1 (2) number of patients (percent)
  Malaise, TEAEs Due to Any Cause, Any grade: 1 (2) number of patients (percent)
  Malaise, TEAEs Due to Any Cause, Grade 1: 1 (2) number of patients (percent)
  Malaise, Treatment-Related TEAEs, Any grade: 1 (2) number of patients (percent)
  Malaise, Treatment-Related TEAEs, Grade 1: 1 (2) number of patients (percent)
  Micturition urgency, TEAEs Due to Any Cause, Any grade: 1 (2) number of patients (percent)
  Micturition urgency, TEAEs Due to Any Cause, Grade 1: 1 (2) number of patients (percent)
  Micturition urgency, Treatment-Related TEAEs, Any grade: 1 (2) number of patients (percent)
  Micturition urgency, Treatment-Related TEAEs, Grade 1: 1 (2) number of patients (percent)
  Muscle spasms, TEAEs Due to Any Cause, Any grade: 2 (3) number of patients (percent)
  Muscle spasms, TEAEs Due to Any Cause, Grade 1: 2 (3) number of patients (percent)
  Muscle spasms, Treatment-Related TEAEs, Any grade: 1 (2) number of patients (percent)
  Muscle spasms, Treatment-Related TEAEs, Grade 1: 1 (2) number of patients (percent)
  Myalgia, TEAEs Due to Any Cause, Any grade: 1 (2) number of patients (percent)
  Myalgia, TEAEs Due to Any Cause, Grade 1: 1 (2) number of patients (percent)
  Myalgia, Treatment-Related TEAEs, Any grade: 1 (2) number of patients (percent)
  Myalgia, Treatment-Related TEAEs, Grade 1: 1 (2) number of patients (percent)
  Nasal congestion, TEAEs Due to Any Cause, Any grade: 2 (3) number of patients (percent)
  Nasal congestion, TEAEs Due to Any Cause, Grade 1: 1 (2) number of patients (percent)
  Nasal congestion, TEAEs Due to Any Cause, Grade 2: 1 (2) number of patients (percent)
  Nasopharyngitis, TEAEs Due to Any Cause, Any grade: 3 (5) number of patients (percent)
  Nasopharyngitis, TEAEs Due to Any Cause, Grade 1: 2 (3) number of patients (percent)
  Nasopharyngitis, TEAEs Due to Any Cause, Grade 2: 1 (2) number of patients (percent)
  Nausea, TEAEs Due to Any Cause, Any grade: 21 (35) number of patients (percent)
  Nausea, TEAEs Due to Any Cause, Grade 1: 18 (30) number of patients (percent)
  Nausea, TEAEs Due to Any Cause, Grade 2: 3 (5) number of patients (percent)
  Nausea, Treatment-Related TEAEs, Any grade: 18 (30) number of patients (percent)
  Nausea, Treatment-Related TEAEs, Grade 1: 16 (27) number of patients (percent)
  Nausea, Treatment-Related TEAEs, Grade 2: 2 (3) number of patients (percent)
  Peripheral swelling, TEAEs Due to Any Cause, Any grade: 3 (5) number of patients (percent)
  Peripheral swelling, TEAEs Due to Any Cause, Grade 1: 3 (5) number of patients (percent)
  Petechiae, TEAEs Due to Any Cause, Any grade: 4 (7) number of patients (percent)
  Petechiae, TEAEs Due to Any Cause, Grade 1: 4 (7) number of patients (percent)
  Pruritus, TEAEs Due to Any Cause, Any grade: 2 (3) number of patients (percent)
  Pruritus, TEAEs Due to Any Cause, Grade 1: 1 (2) number of patients (percent)
  Pruritus, TEAEs Due to Any Cause, Grade 2: 1 (2) number of patients (percent)
  Pruritus, Treatment-Related TEAEs, Any grade: 2 (3) number of patients (percent)
  Pruritus, Treatment-Related TEAEs, Grade 1: 1 (2) number of patients (percent)
  Pruritus, Treatment-Related TEAEs, Grade 2: 1 (2) number of patients (percent)
  Purpura, TEAEs Due to Any Cause, Any grade: 2 (3) number of patients (percent)
  Purpura, TEAEs Due to Any Cause, Grade 1: 2 (3) number of patients (percent)
  Rash, TEAEs Due to Any Cause, Any grade: 3 (5) number of patients (percent)
  Rash, TEAEs Due to Any Cause, Grade 1: 1 (2) number of patients (percent)
  Rash, TEAEs Due to Any Cause, Grade 2: 2 (3) number of patients (percent)
  Rash, Treatment-Related TEAEs, Any grade: 1 (2) number of patients (percent)
  Rash, Treatment-Related TEAEs, Grade 1: 1 (2) number of patients (percent)
  Thrombocytopenia, TEAEs Due to Any Cause, Any grade: 2 (3) number of patients (percent)
  Thrombocytopenia, TEAEs Due to Any Cause, Grade 3/4: 2 (3) number of patients (percent)
  Upper abdominal pain, TEAEs Due to Any Cause, Any grade: 3 (5) number of patients (percent)
  Upper abdominal pain, TEAEs Due to Any Cause, Grade 1: 2 (3) number of patients (percent)
  Upper abdominal pain, TEAEs Due to Any Cause, Grade 2: 1 (2) number of patients (percent)
  Upper abdominal pain, Treatment-Related TEAEs, Any grade: 2 (3) number of patients (percent)
  Upper abdominal pain, Treatment-Related TEAEs, Grade 1: 1 (2) number of patients (percent)
  Upper abdominal pain, Treatment-Related TEAEs, Grade 2: 1 (2) number of patients (percent)
  Upper respiratory tract infection, TEAEs Due to Any Cause, Any grade: 3 (5) number of patients (percent)
  Upper respiratory tract infection, TEAEs Due to Any Cause, Grade 1: 2 (3) number of patients (percent)
  Upper respiratory tract infection, TEAEs Due to Any Cause, Grade 2: 1 (2) number of patients (percent)
  Urinary tract infection, TEAEs Due to Any Cause, Any grade: 2 (3) number of patients (percent)
  Urinary tract infection, TEAEs Due to Any Cause, Grade 1: 1 (2) number of patients (percent)
  Urinary tract infection, TEAEs Due to Any Cause, Grade 2: 1 (2) number of patients (percent)
  Vomiting, TEAEs Due to Any Cause, Any grade: 4 (7) number of patients (percent)
  Vomiting, TEAEs Due to Any Cause, Grade 1: 3 (5) number of patients (percent)
  Vomiting, TEAEs Due to Any Cause, Grade 2: 1 (2) number of patients (percent)
  Vomiting, Treatment-Related TEAEs, Any grade: 3 (5) number of patients (percent)
  Vomiting, Treatment-Related TEAEs, Grade 1: 2 (3) number of patients (percent)
  Vomiting, Treatment-Related TEAEs, Grade 2: 1 (2) number of patients (percent)
In vivo
  TEAE resulting in study drug discontinuation: administrative and site conditions: 1 (2%) patients (%)
  TEAE resulting in study drug discontinuation: gastrointestinal (GI) disorders: 4 (7%) patients (%)
  TEAE resulting in study drug discontinuation: lymphatic system disorders: 2 (4%) patients (%)
[1]
  treatment-related any-grade TEAE: diarrhea: 32%
  treatment-related any-grade TEAE: fatigue: 10%
  treatment-related any-grade TEAE: nausea: 30%
Unrelated to treatment, 400 mg bid discontinued on day 8, pre-existing Evans syndrome
  patient death: 1 patient
